Measurements published in PMC10746543, “Design principles for cyclin K molecular glue degraders” (Nature Chemical Biology, 2023).
Several values for one entry are separate records, joined by “and”; a condition that tells them apart may be missing. Equal entries are not always repeated. Where two headings read alike, the source gives them in different places.

Tests used:
CDK2–cyclin A = molecular target: T1, CDK2–cyclin A (Homo sapiens, UniProt P24941); experiment: Lanthascreen kinase binding assay, CDK2
T1 construct: purchased Thermo Fisher
Procedure: (§1) Lanthascreen experiments were performed using commercially available reagents (Thermo Fisher) and according to the manufacturer’s instructions.

[1] = system: cyclin K–eGFP degradation reporter; experiment: Cyclin K reporter stability analysis (dual-color cyclin K–eGFP reporter); assay type: cell-based, human
Summary of the method: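 HEK293T–Cas9 cells carrying the cyclin K–eGFP reporter were seeded at 1 × 10^6 ml^−1 and exposed to drug or DMSO for 5 h. Flow cytometry gave geometric means of eGFP and mCherry in round, mCherry-positive cells. The eGFP/mCherry ratio was normalized to the mean of three DMSO controls.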

CDK9–cyclin T = molecular target: T2, CDK9–cyclin T (Homo sapiens, UniProt P50750); experiment: Lanthascreen kinase binding assay, CDK9; conditions: for IC50: Supplementary Table 2, read-out: Lanthascreen IC50 [nM] CDK9; for Lanthascreen TR-FRET signal (raw ratio), sheet CDK9: duplicates
T2 construct: purchased Thermo Fisher
Procedure: as §1

[2] = Compound 1.02544 nM, raw replicates, experiment r1-r11
[3] = Compound 3.15521 nM, raw replicates, experiment r1-r11
[4] = Compound 9.46563 nM, raw replicates, experiment r1-r11
[5] = Compound 31.5521 nM, raw replicates, experiment r1-r11
[6] = Compound 99.3891 nM, raw replicates, experiment r1-r11
[7] = Compound 315.521 nM, raw replicates, experiment r1-r11
[8] = Compound 3155.21 nM, raw replicates, experiment r1-r11
[9] = Compound 10002 nM, raw replicates, experiment r1-r11
[10] = Supplementary Table 2, read-out: Lanthascreen IC50 [nM] CDK2
[11] = source data sheet correlations, read-out: DC50
[12] = compound 1.02544 nM, first titration set (r1)
[13] = compound 3.15521 nM, first titration set (r1)
[14] = compound 9.46563 nM, first titration set (r1)
[15] = compound 31.5521 nM, first titration set (r1)
[16] = compound 99.3891 nM, first titration set (r1)
[17] = compound 315.521 nM, first titration set (r1)
[18] = compound 3155.21 nM, first titration set (r1)
[19] = compound 10002 nM, first titration set (r1)
[20] = Compound 0.038147 nM, raw replicates, experiment r13-r23
[21] = Compound 0.152588 nM, raw replicates, experiment r13-r23
[22] = Compound 0.610352 nM, raw replicates, experiment r13-r23
[23] = Compound 9.76563 nM, raw replicates, experiment r13-r23
[24] = Compound 39.0625 nM, raw replicates, experiment r13-r23
[25] = Compound 156.25 nM, raw replicates, experiment r13-r23
[26] = Compound 625 nM, raw replicates, experiment r13-r23
[27] = Compound 2500 nM, raw replicates, experiment r13-r23
[28] = Compound 10000 nM, raw replicates, experiment r13-r23
[29] = Lanthascreen, average, Extended Data Fig. 8, read-out: CDK2 IC50
[30] = compound 0.038147 nM, second titration set (r13)
[31] = compound 0.152588 nM, second titration set (r13)
[32] = compound 0.610352 nM, second titration set (r13)
[33] = compound 9.76563 nM, second titration set (r13)
[34] = compound 39.0625 nM, second titration set (r13)
[35] = compound 156.25 nM, second titration set (r13)
[36] = compound 625 nM, second titration set (r13)
[37] = compound 2500 nM, second titration set (r13)
[38] = compound 10000 nM, second titration set (r13)

T2 sequence (P50750 whole entry): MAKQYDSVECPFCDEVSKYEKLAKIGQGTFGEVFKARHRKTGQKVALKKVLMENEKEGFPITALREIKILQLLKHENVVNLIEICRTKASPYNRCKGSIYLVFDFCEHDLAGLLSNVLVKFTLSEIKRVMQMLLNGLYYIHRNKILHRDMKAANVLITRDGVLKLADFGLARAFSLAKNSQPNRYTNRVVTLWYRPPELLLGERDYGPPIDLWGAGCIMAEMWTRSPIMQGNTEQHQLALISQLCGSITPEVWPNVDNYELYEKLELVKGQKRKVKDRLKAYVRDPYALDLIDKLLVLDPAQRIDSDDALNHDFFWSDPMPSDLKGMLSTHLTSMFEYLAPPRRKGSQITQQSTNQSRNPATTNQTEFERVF
T2 sequence (O60563 whole entry partner): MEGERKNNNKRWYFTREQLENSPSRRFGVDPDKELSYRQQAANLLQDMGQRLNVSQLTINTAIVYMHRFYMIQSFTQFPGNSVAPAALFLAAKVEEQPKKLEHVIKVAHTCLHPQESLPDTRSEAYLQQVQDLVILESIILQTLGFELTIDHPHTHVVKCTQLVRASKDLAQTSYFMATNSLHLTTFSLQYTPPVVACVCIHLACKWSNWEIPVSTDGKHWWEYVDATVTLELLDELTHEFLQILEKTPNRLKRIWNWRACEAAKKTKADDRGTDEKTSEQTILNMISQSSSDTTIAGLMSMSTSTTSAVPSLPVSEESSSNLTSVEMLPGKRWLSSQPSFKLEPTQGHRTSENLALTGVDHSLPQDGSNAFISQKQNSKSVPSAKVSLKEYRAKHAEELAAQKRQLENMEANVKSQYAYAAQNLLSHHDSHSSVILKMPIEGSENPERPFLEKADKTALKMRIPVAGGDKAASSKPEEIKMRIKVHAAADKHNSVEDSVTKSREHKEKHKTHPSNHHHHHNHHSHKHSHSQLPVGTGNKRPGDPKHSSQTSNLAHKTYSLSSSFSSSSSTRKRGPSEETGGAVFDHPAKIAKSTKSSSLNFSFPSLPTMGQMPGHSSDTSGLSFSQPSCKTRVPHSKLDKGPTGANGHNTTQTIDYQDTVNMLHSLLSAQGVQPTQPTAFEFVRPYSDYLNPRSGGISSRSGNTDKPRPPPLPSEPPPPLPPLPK

## Cc1cc2nc(CNc3nc(N4CCN(C)CC4)nc4c(Br)cnn34)[nH]c2cc1C [DS73, reference compound]
CDK2–cyclin A; [2]
  Lanthascreen signal, sheet CDK2: 0.01165 and 0.01109
CDK2–cyclin A; [3]
  Lanthascreen signal, sheet CDK2: 0.008478 and 0.00993
CDK2–cyclin A; Compound 4.57247 nM, experiment r25-r34
  Lanthascreen signal, sheet CDK2: 0.01637
CDK2–cyclin A; [4]
  Lanthascreen signal, sheet CDK2: 0.009994 and 0.009998
CDK2–cyclin A; Compound 13.7174 nM, experiment r25-r34
  Lanthascreen signal, sheet CDK2: 0.01615
CDK2–cyclin A; [5]
  Lanthascreen signal, sheet CDK2: 0.01039 and 0.01091
CDK2–cyclin A; Compound 41.1523 nM, experiment r25-r34
  Lanthascreen signal, sheet CDK2: 0.01569
CDK2–cyclin A; [6]
  Lanthascreen signal, sheet CDK2: 0.0115 and 0.01029
CDK2–cyclin A; Compound 123.457 nM, experiment r25-r34
  Lanthascreen signal, sheet CDK2: 0.01519
CDK2–cyclin A; [7]
  Lanthascreen signal, sheet CDK2: 0.008046 and 0.01008
CDK2–cyclin A; Compound 370.37 nM, experiment r25-r34
  Lanthascreen signal, sheet CDK2: 0.01387
CDK2–cyclin A; [8]
  Lanthascreen signal, sheet CDK2: 0.007483 and 0.007205
CDK2–cyclin A; Compound 3333.33 nM, experiment r25-r34
  Lanthascreen signal, sheet CDK2: 0.009102
CDK2–cyclin A; Compound 10000 nM, experiment r25-r34
  Lanthascreen signal, sheet CDK2: 0.006383
CDK2–cyclin A; [9]
  Lanthascreen signal, sheet CDK2: 0.003415 and 0.004039
CDK2–cyclin A; [10]
  IC50: 6120 nM
[1]; [11]
  DC50: 0.001 µM
CDK9–cyclin T
  IC50: 557 nM
CDK9–cyclin T; [12]
  Lanthascreen TR-FRET signal (raw ratio), sheet CDK9: 0.01409 and 0.01452
CDK9–cyclin T; [13]
  Lanthascreen TR-FRET signal (raw ratio), sheet CDK9: 0.01533 and 0.01444
CDK9–cyclin T; [14]
  Lanthascreen TR-FRET signal (raw ratio), sheet CDK9: 0.01086 and 0.01492
CDK9–cyclin T; [15]
  Lanthascreen TR-FRET signal (raw ratio), sheet CDK9: 0.01278 and 0.01412
CDK9–cyclin T; [16]
  Lanthascreen TR-FRET signal (raw ratio), sheet CDK9: 0.01498 and 0.0129
CDK9–cyclin T; [17]
  Lanthascreen TR-FRET signal (raw ratio), sheet CDK9: 0.01059 and 0.008471
CDK9–cyclin T; [18]
  Lanthascreen TR-FRET signal (raw ratio), sheet CDK9: 0.004926 and 0.00557
CDK9–cyclin T; [19]
  Lanthascreen TR-FRET signal (raw ratio), sheet CDK9: 0.002868 and 0.004276

## O=C(CSc1nnc2c(n1)[nH]c1ccccc12)Nc1ccc(Cl)cn1 [dCeMM2]
CDK2–cyclin A; [20]
  Lanthascreen signal, sheet CDK2: 0.01324 and 0.0125
CDK2–cyclin A; [21]
  Lanthascreen signal, sheet CDK2: 0.01322 and 0.0127
CDK2–cyclin A; [22]
  Lanthascreen signal, sheet CDK2: 0.01294 and 0.01324
CDK2–cyclin A; [2]
  Lanthascreen signal, sheet CDK2: 0.01157 and 0.009543
CDK2–cyclin A; [3]
  Lanthascreen signal, sheet CDK2: 0.01134 and 0.008854
CDK2–cyclin A; [4]
  Lanthascreen signal, sheet CDK2: 0.008629 and 0.01226
CDK2–cyclin A; [23]
  Lanthascreen signal, sheet CDK2: 0.01333 and 0.01313
CDK2–cyclin A; [5]
  Lanthascreen signal, sheet CDK2: 0.009538 and 0.01114
CDK2–cyclin A; [24]
  Lanthascreen signal, sheet CDK2: 0.01348 and 0.0134
CDK2–cyclin A; [6]
  Lanthascreen signal, sheet CDK2: 0.01108 and 0.01101
CDK2–cyclin A; [25]
  Lanthascreen signal, sheet CDK2: 0.01287 and 0.01355
CDK2–cyclin A; [7]
  Lanthascreen signal, sheet CDK2: 0.0103 and 0.01153
CDK2–cyclin A; [26]
  Lanthascreen signal, sheet CDK2: 0.01294 and 0.01314
CDK2–cyclin A; [27]
  Lanthascreen signal, sheet CDK2: 0.01073 and 0.0108
CDK2–cyclin A; [8]
  Lanthascreen signal, sheet CDK2: 0.01038 and 0.01039
CDK2–cyclin A; [28]
  Lanthascreen signal, sheet CDK2: 0.01123 and 0.01202
CDK2–cyclin A; [9]
  Lanthascreen signal, sheet CDK2: 0.01161 and 0.009572
CDK2–cyclin A; [29]
  IC50: > 10000 nM
CDK2–cyclin A; [10]
  IC50: > 10000 nM
[1]; [11]
  DC50: 0.633 µM
CDK9–cyclin T
  IC50: 1110 nM
CDK9–cyclin T; [30]
  Lanthascreen TR-FRET signal (raw ratio), sheet CDK9: 0.01383 and 0.01355
CDK9–cyclin T; [31]
  Lanthascreen TR-FRET signal (raw ratio), sheet CDK9: 0.0139 and 0.01441
CDK9–cyclin T; [32]
  Lanthascreen TR-FRET signal (raw ratio), sheet CDK9: 0.01347 and 0.01396
CDK9–cyclin T; [12]
  Lanthascreen TR-FRET signal (raw ratio), sheet CDK9: 0.01429 and 0.01561
CDK9–cyclin T; [13]
  Lanthascreen TR-FRET signal (raw ratio), sheet CDK9: 0.01467 and 0.01402
CDK9–cyclin T; [14]
  Lanthascreen TR-FRET signal (raw ratio), sheet CDK9: 0.01439 and 0.01388
CDK9–cyclin T; [33]
  Lanthascreen TR-FRET signal (raw ratio), sheet CDK9: 0.01427 and 0.01339
CDK9–cyclin T; [15]
  Lanthascreen TR-FRET signal (raw ratio), sheet CDK9: 0.01459 and 0.0177
CDK9–cyclin T; [34]
  Lanthascreen TR-FRET signal (raw ratio), sheet CDK9: 0.01365 and 0.01337
CDK9–cyclin T; [16]
  Lanthascreen TR-FRET signal (raw ratio), sheet CDK9: 0.01319 and 0.01787
CDK9–cyclin T; [35]
  Lanthascreen TR-FRET signal (raw ratio), sheet CDK9: 0.01319 and 0.01335
CDK9–cyclin T; [17]
  Lanthascreen TR-FRET signal (raw ratio), sheet CDK9: 0.01154 and 0.01497
CDK9–cyclin T; [36]
  Lanthascreen TR-FRET signal (raw ratio), sheet CDK9: 0.01033 and 0.01039
CDK9–cyclin T; [37]
  Lanthascreen TR-FRET signal (raw ratio), sheet CDK9: 0.00843 and 0.008233
CDK9–cyclin T; [18]
  Lanthascreen TR-FRET signal (raw ratio), sheet CDK9: 0.01003 and 0.01129
CDK9–cyclin T; [38]
  Lanthascreen TR-FRET signal (raw ratio), sheet CDK9: 0.006379 and 0.005879
CDK9–cyclin T; [19]
  Lanthascreen TR-FRET signal (raw ratio), sheet CDK9: 0.009746 and 0.009366

## O=C(CSc1nc2ccccc2[nH]1)Nc1ccc(Cl)cn1 [dCeMM3]
CDK2–cyclin A; [20]
  Lanthascreen signal, sheet CDK2: 0.01285 and 0.01289
CDK2–cyclin A; [21]
  Lanthascreen signal, sheet CDK2: 0.01318 and 0.01321
CDK2–cyclin A; [22]
  Lanthascreen signal, sheet CDK2: 0.01258 and 0.01278
CDK2–cyclin A; [2]
  Lanthascreen signal, sheet CDK2: 0.008366 and 0.009193
CDK2–cyclin A; [3]
  Lanthascreen signal, sheet CDK2: 0.01197 and 0.009076
CDK2–cyclin A; [4]
  Lanthascreen signal, sheet CDK2: 0.01142 and 0.01118
CDK2–cyclin A; [23]
  Lanthascreen signal, sheet CDK2: 0.01261 and 0.01356
CDK2–cyclin A; [5]
  Lanthascreen signal, sheet CDK2: 0.01118 and 0.009287
CDK2–cyclin A; [24]
  Lanthascreen signal, sheet CDK2: 0.01377 and 0.01313
CDK2–cyclin A; [6]
  Lanthascreen signal, sheet CDK2: 0.01102 and 0.008633
CDK2–cyclin A; [25]
  Lanthascreen signal, sheet CDK2: 0.01301 and 0.01263
CDK2–cyclin A; [7]
  Lanthascreen signal, sheet CDK2: 0.01039 and 0.01098
CDK2–cyclin A; [26]
  Lanthascreen signal, sheet CDK2: 0.01331 and 0.01224
CDK2–cyclin A; [27]
  Lanthascreen signal, sheet CDK2: 0.0123 and 0.01244
CDK2–cyclin A; [8]
  Lanthascreen signal, sheet CDK2: 0.0101 and 0.009174
CDK2–cyclin A; [28]
  Lanthascreen signal, sheet CDK2: 0.01049 and 0.00891
CDK2–cyclin A; [9]
  Lanthascreen signal, sheet CDK2: 0.008182 and 0.007001
CDK2–cyclin A; [29]
  IC50: > 10000 nM
CDK2–cyclin A; [10]
  IC50: > 10000 nM
[1]; Supplementary Table 2, HEK293T cycK-eGFP reporter, 5 h, read-out: Cellular assays DC50
  DC50: > 10 µM
CDK9–cyclin T
  IC50: 3020 nM
CDK9–cyclin T; [30]
  Lanthascreen TR-FRET signal (raw ratio), sheet CDK9: 0.01294 and 0.01365
CDK9–cyclin T; [31]
  Lanthascreen TR-FRET signal (raw ratio), sheet CDK9: 0.0141 and 0.01339
CDK9–cyclin T; [32]
  Lanthascreen TR-FRET signal (raw ratio), sheet CDK9: 0.0143 and 0.01462
CDK9–cyclin T; [12]
  Lanthascreen TR-FRET signal (raw ratio), sheet CDK9: 0.01545 and 0.0134
CDK9–cyclin T; [13]
  Lanthascreen TR-FRET signal (raw ratio), sheet CDK9: 0.01353 and 0.01504
CDK9–cyclin T; [14]
  Lanthascreen TR-FRET signal (raw ratio), sheet CDK9: 0.01222 and 0.01325
CDK9–cyclin T; [33]
  Lanthascreen TR-FRET signal (raw ratio), sheet CDK9: 0.01396 and 0.01385
CDK9–cyclin T; [15]
  Lanthascreen TR-FRET signal (raw ratio), sheet CDK9: 0.0135 and 0.01525
CDK9–cyclin T; [34]
  Lanthascreen TR-FRET signal (raw ratio), sheet CDK9: 0.0129 and 0.01348
CDK9–cyclin T; [16]
  Lanthascreen TR-FRET signal (raw ratio), sheet CDK9: 0.01289 and 0.01231
CDK9–cyclin T; [35]
  Lanthascreen TR-FRET signal (raw ratio), sheet CDK9: 0.01372 and 0.01352
CDK9–cyclin T; [17]
  Lanthascreen TR-FRET signal (raw ratio), sheet CDK9: 0.01199 and 0.01288
CDK9–cyclin T; [36]
  Lanthascreen TR-FRET signal (raw ratio), sheet CDK9: 0.01085 and 0.01132
CDK9–cyclin T; [37]
  Lanthascreen TR-FRET signal (raw ratio), sheet CDK9: 0.0085 and 0.007435
CDK9–cyclin T; [18]
  Lanthascreen TR-FRET signal (raw ratio), sheet CDK9: 0.006467 and 0.007084
CDK9–cyclin T; [38]
  Lanthascreen TR-FRET signal (raw ratio), sheet CDK9: 0.00463 and 0.004475
CDK9–cyclin T; [19]
  Lanthascreen TR-FRET signal (raw ratio), sheet CDK9: 0.0026 and 0.00423
